Several values for one entry are separate records, joined by “and”; a condition that tells them apart may be missing. Identical values can stand only once. Inconclusive results and toxic doses are left out.
Test system: L1210 leukemia ip in BDF1 mice, survival T/C
Assay: NCI In Vivo Anticancer Drug Screen. Data for tumor model L1210 Leukemia (intraperitoneal) in B6D2F1 (BDF1) mice
Settings: endpoint: mean survival time, higher = longer survival
Summary of the method: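 In this screen, tumor-bearing mice given compound are compared to those given vehicle, and their survival values are reported as a treated-to-control quotient.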

[1] = dose: 75.0 mg/kg/injection, schedule: Q01DX001 (ip), vehicle: other
[2] = dose: 150.0 mg/kg/injection, schedule: Q01DX001 (ip), vehicle: other
[3] = dose: 50.0 mg/kg/injection, schedule: Q01DX009 (ip), vehicle: Klucel (hydroxypropylcellulose) (HPC)
[4] = dose: 100.0 mg/kg/injection, schedule: Q01DX009 (ip), vehicle: Klucel (hydroxypropylcellulose) (HPC)
[5] = dose: 100.0 mg/kg/injection, schedule: Q04DX002 (ip), vehicle: saline
[6] = dose: 100.0 mg/kg/injection, schedule: Q04DX002 (ip), vehicle: saline with Tween-80
[7] = dose: 100.0 mg/kg/injection, schedule: Q04DX003 (ip), vehicle: saline with Tween-80
[8] = dose: 200.0 mg/kg/injection, schedule: Q04DX002 (ip), vehicle: saline with Tween-80
[9] = dose: 400.0 mg/kg/injection, schedule: Q04DX003 (ip), vehicle: saline with Tween-80
[10] = dose: 100.0 mg/kg/injection, schedule: Q01DX001 (ip), vehicle: saline
[11] = dose: 200.0 mg/kg/injection, schedule: Q01DX001 (ip), vehicle: saline
[12] = dose: 400.0 mg/kg/injection, schedule: Q01DX001 (ip), vehicle: saline
[13] = dose: 100.0 mg/kg/injection, schedule: Q01DX009 (ip), vehicle: saline with Tween-80
[14] = dose: 200.0 mg/kg/injection, schedule: Q01DX009 (ip), vehicle: saline with Tween-80
[15] = dose: 400.0 mg/kg/injection, schedule: Q04DX002 (ip), vehicle: saline
[16] = dose: 25.0 mg/kg/injection, schedule: Q04DX003 (ip), vehicle: saline

For `CCCCCCCCCCC(CCCCCCCCCC)CC1CCCC1`, the T/C (dose: 75.0 mg/kg/injection, schedule: Q01DX001 (ip), vehicle: saline with Tween-80) was 100 % of control, the T/C (dose: 150.0 mg/kg/injection, schedule: Q01DX001 (ip), vehicle: saline with Tween-80) was 103 % of control and the T/C (dose: 300.0 mg/kg/injection, schedule: Q01DX001 (ip), vehicle: saline with Tween-80) was 97 % of control.

For `CC(=O)OCC1OC(n2cnc3c(=S)nc[nH]c32)C(OC(C)=O)C1OC(C)=O` (configuration not stated), the T/C (dose: 6.5 mg/kg/injection, schedule: Q01DX Z (ip), vehicle: carboxymethylcellulose (CMC)) was 122 % of control, the T/C (dose: 13.0 mg/kg/injection, schedule: Q01DX Z (ip), vehicle: carboxymethylcellulose (CMC)) was 113 % of control and the T/C (dose: 40.0 mg/kg/injection, schedule: Q01DX Z (ip), vehicle: carboxymethylcellulose (CMC)) was 151 % of control. For the same compound, the T/C (dose: 180.0 mg/kg/injection, schedule: Q01DX Z (ip), vehicle: carboxymethylcellulose (CMC)) was 107 % of control.

In the case of `NC(C[Se][Se]CC(N)C(=O)O)C(=O)O` (configuration not stated), the T/C (dose: 1.56 mg/kg/injection, schedule: Q04DX002 (ip), vehicle: saline) is reported as 103 % of control, the T/C (dose: 3.12 mg/kg/injection, schedule: Q04DX002 (ip), vehicle: saline) is reported as 103 % of control and the T/C (dose: 6.25 mg/kg/injection, schedule: Q04DX002 (ip), vehicle: saline) is reported as 103 % of control. For the same compound, the T/C (dose: 12.5 mg/kg/injection, schedule: Q04DX002 (ip), vehicle: saline) was 88 % of control.

For `CCC(CCl)NC(CC(C)C)CC(C)C` (configuration not stated), the T/C (dose: 75.0 mg/kg/injection, schedule: Q01DX001 (ip), vehicle: saline) was 93 % of control and 98 % of control and the T/C (dose: 150.0 mg/kg/injection, schedule: Q01DX001 (ip), vehicle: saline) was 96 % of control and 107 % of control.

With `O=Nc1c(O)ccc2ncccc12` the T/C [1] was 104 % of control and the T/C [2] was 104 % of control.

In the case of `CS(=O)(=O)OCCCCCCCCCOS(C)(=O)=O`, the T/C (dose: 25.0 mg/kg/injection, schedule: Q01DX009 (ip), vehicle: Klucel (hydroxypropylcellulose) (HPC)) is reported as 96 % of control, the T/C [3] is reported as 103 % of control and the T/C [1] is reported as 95 % of control. For the same compound, the T/C [4] was 105 % of control and the T/C [2] was 108 % of control.

`CC1([N+](=O)[O-])COP(=O)(NCCCN2CCOCC2)OC1` (configuration not stated) was tested, and the T/C (dose: 100.0 mg/kg/injection, schedule: Q01DX001 (ip), vehicle: carboxymethylcellulose (CMC)) was 97 % of control, the T/C (dose: 200.0 mg/kg/injection, schedule: Q01DX001 (ip), vehicle: carboxymethylcellulose (CMC)) was 97 % of control and the T/C (dose: 400.0 mg/kg/injection, schedule: Q01DX001 (ip), vehicle: carboxymethylcellulose (CMC)) was 97 % of control.

For `C=CS(=O)(=O)CC`, the T/C (dose: 25.0 mg/kg/injection, schedule: Q04DX002 (ip), vehicle: saline) was 119 % of control, the T/C (dose: 50.0 mg/kg/injection, schedule: Q04DX002 (ip), vehicle: saline) was 102 % of control and the T/C [5] was 102 % of control.

`Nc1ccccc1SC(CC(=O)c1ccccc1)c1ccccc1` (configuration not stated) was tested, and the T/C [6] was 93 % of control and 96 % of control, the T/C [7] was 91 % of control and the T/C [8] was 100 % of control and 103 % of control. The T/C (dose: 200.0 mg/kg/injection, schedule: Q04DX003 (ip), vehicle: saline with Tween-80) was 93 % of control and 109 % of control, the T/C (dose: 400.0 mg/kg/injection, schedule: Q04DX002 (ip), vehicle: saline with Tween-80) was 98 % of control and 104 % of control and the T/C [9] was 95 % of control and 91 % of control.

With `CC1CC(C)(C)[N+]2=C(CCCC2)O1` (configuration not stated) the T/C (dose: 6.25 mg/kg/injection, schedule: Q01DX009 (ip), vehicle: saline) was 96 % of control, the T/C (dose: 12.5 mg/kg/injection, schedule: Q01DX009 (ip), vehicle: saline) was 94 % of control and the T/C (dose: 25.0 mg/kg/injection, schedule: Q01DX009 (ip), vehicle: saline) was 103 % of control.

`Brc1cc(Br)c(N=Nc2c(Br)cc(Br)cc2Br)c(Br)c1` was tested, and the T/C (dose: 50.0 mg/kg/injection, schedule: Q01DX001 (ip), vehicle: saline) was 95 % of control, the T/C [10] was 95 % of control and the T/C [11] was 95 % of control. For the same compound, the T/C [12] was 101 % of control.

With `CC1(C)OC2C(CO)OC(n3nnc4c(SCc5ccccc5)nc(N)nc43)C2O1` (configuration not stated) the T/C (dose: 100.0 mg/kg/injection, schedule: Q01DX001 (ip), vehicle: Klucel (hydroxypropylcellulose) (HPC)) was 98 % of control, the T/C (dose: 200.0 mg/kg/injection, schedule: Q01DX001 (ip), vehicle: Klucel (hydroxypropylcellulose) (HPC)) was 92 % of control and the T/C (dose: 400.0 mg/kg/injection, schedule: Q01DX001 (ip), vehicle: Klucel (hydroxypropylcellulose) (HPC)) was 101 % of control.

For `COc1ccc(OC)c(/C=N/NC(=O)c2ccccc2Cl)c1`, the T/C (dose: 50.0 mg/kg/injection, schedule: Q01DX009 (ip), vehicle: saline with Tween-80) was 91 % of control, the T/C [13] was 97 % of control and the T/C [14] was 94 % of control.

For `COC1OC(COC(C)=O)C(OC(C)=O)C2C1N2C(N)=S` (configuration not stated), the T/C [5] was 110 % of control and the T/C [15] was 113 % of control.

For `CC(C)C[CH2][Pb]([Cl])([CH2]CC(C)C)[CH2]CC(C)C`, the T/C (dose: 0.03 mg/kg/injection, schedule: Q04DX002 (ip), vehicle: saline) was 96 % of control, the T/C (dose: 0.05 mg/kg/injection, schedule: Q04DX002 (ip), vehicle: saline) was 102 % of control and the T/C (dose: 0.1 mg/kg/injection, schedule: Q04DX002 (ip), vehicle: saline) was 96 % of control. For the same compound, the T/C (dose: 0.2 mg/kg/injection, schedule: Q04DX002 (ip), vehicle: other) was 111 % of control, the T/C (dose: 0.2 mg/kg/injection, schedule: Q04DX003 (ip), vehicle: other) was 101 % of control and the T/C (dose: 0.78 mg/kg/injection, schedule: Q04DX003 (ip), vehicle: other) was 95 % of control.

`Cc1ccc(C)c(NC(=O)NCc2ccc(Cl)cc2)c1` was tested, and the T/C [13] was 87 % of control, the T/C [7] was 93 % of control and the T/C [14] was 89 % of control. For the same compound, the T/C (dose: 400.0 mg/kg/injection, schedule: Q01DX009 (ip), vehicle: saline with Tween-80) was 93 % of control and the T/C [9] was 100 % of control.

`O=C(NCCO)Nc1cccc(Cl)c1` was tested, and the T/C [5] was 100 % of control, the T/C (dose: 200.0 mg/kg/injection, schedule: Q04DX002 (ip), vehicle: saline) was 100 % of control and the T/C [15] was 111 % of control.

For `Oc1c(O)c(Cl)c(Cl)c(Cl)c1Cl`, the T/C (dose: 12.5 mg/kg/injection, schedule: Q04DX003 (ip), vehicle: saline) was 97 % of control, the T/C [16] was 95 % of control and the T/C (dose: 50.0 mg/kg/injection, schedule: Q04DX003 (ip), vehicle: saline) was 98 % of control.

In the case of `O=C(O)C1(C(=O)O)CCC1.[NH2-].[NH2-].[Pt+2]`, the T/C (dose: 2.0 mg/kg/injection, schedule: Q01DX009 (ip), vehicle: saline) is reported as 97 % of control, the T/C (dose: 4.0 mg/kg/injection, schedule: Q01DX001 (ip), vehicle: saline) is reported as 100 % of control and the T/C (dose: 4.0 mg/kg/injection, schedule: Q01DX009 (ip), vehicle: saline) is reported as 100 % of control. The T/C (dose: 8.0 mg/kg/injection, schedule: Q01DX001 (ip), vehicle: saline) was 100 % of control, the T/C (dose: 8.0 mg/kg/injection, schedule: Q01DX009 (ip), vehicle: saline) was 108 % of control and the T/C (dose: 16.0 mg/kg/injection, schedule: Q01DX001 (ip), vehicle: saline) was 102 % of control. For the same compound, the T/C (dose: 16.0 mg/kg/injection, schedule: Q01DX009 (ip), vehicle: saline) was 119 % of control, the T/C [16] was 110 % of control and 113 % of control and the T/C (dose: 64.0 mg/kg/injection, schedule: Q01DX009 (ip), vehicle: saline) was 171 % of control. For the same compound, the T/C (dose: 100.0 mg/kg/injection, schedule: Q04DX003 (ip), vehicle: saline) was 154 % of control and 176 % of control, the T/C (dose: 128.0 mg/kg/injection, schedule: Q01DX001 (ip), vehicle: saline) was 152 % of control and the T/C (dose: 200.0 mg/kg/injection, schedule: Q04DX003 (ip), vehicle: saline) was 97 % of control and 105 % of control.

`O=C(O)CC(O)C(Cl)(Cl)Cl` (configuration not stated) was tested, and the T/C [10] was 93 % of control, the T/C [11] was 104 % of control and the T/C [12] was 98 % of control.

`CN(C)C(=Nc1ccccc1)N(C)N` was tested, and the T/C (dose: 37.5 mg/kg/injection, schedule: Q04DX003 (ip), vehicle: saline) was 102 % of control, the T/C (dose: 75.0 mg/kg/injection, schedule: Q04DX003 (ip), vehicle: saline) was 101 % of control and the T/C (dose: 150.0 mg/kg/injection, schedule: Q04DX003 (ip), vehicle: saline) was 102 % of control.

In the case of `Cc1cccnc1N`, the T/C [6] is reported as 104 % of control and the T/C [8] is reported as 107 % of control.

For `O=C(Oc1ccc2ccc(=O)oc2c1)N(CCCl)CCCl`, the T/C [3] was 97 % of control, the T/C [4] was 90 % of control and the T/C (dose: 200.0 mg/kg/injection, schedule: Q01DX009 (ip), vehicle: Klucel (hydroxypropylcellulose) (HPC)) was 101 % of control.

Reference: PubChem BioAssay AID248 (DTP/NCI, 2004)
